pIC50: −log10 of the molar value.
Columns and labels:
[1] = tested on: MCF7 cells; assay: Anti-proliferation (viability) of MCF7 cells (Table 7, FIG. 2B); assay type: cell-based; conditions: Homo sapiens, MCF7, MCF7 cells, 3-6 days, 10-point serial dilution; read-out: GI IC50 in MCF-7
[2] = target: CDK4 (Homo sapiens, UniProt P11802+Q16531); assay: HiBiT detection of HiBiT-tagged CDK4 protein level in MCF7 cells, 16 hours (Table 8); assay type: cell-based; parameters: expressed in transfected cells; host or cells: MCF7; conditions: MCF7 cells stably expressing HiBiT tagged target proteins; for activity at 0.01 µM: 10 nM, read-out: % CDK4 Relative Level (10 nM); for activity at 0.1 µM: 100 nM, read-out: % CDK4 Relative Level (100 nM)
Protocol: HiBiT detection system quantitatively measures total amounts of HiBiT-tagged proteins using a luminescent based method. MCF7 cells stably expressing HiBiT tagged target proteins were treated with heterobifunctional compounds at indicated concentrations for 16 hours, then lysed with Nano-Glo HiBiT Lytic detection reagents.

Sequence of CDK4 (P11802 whole entry): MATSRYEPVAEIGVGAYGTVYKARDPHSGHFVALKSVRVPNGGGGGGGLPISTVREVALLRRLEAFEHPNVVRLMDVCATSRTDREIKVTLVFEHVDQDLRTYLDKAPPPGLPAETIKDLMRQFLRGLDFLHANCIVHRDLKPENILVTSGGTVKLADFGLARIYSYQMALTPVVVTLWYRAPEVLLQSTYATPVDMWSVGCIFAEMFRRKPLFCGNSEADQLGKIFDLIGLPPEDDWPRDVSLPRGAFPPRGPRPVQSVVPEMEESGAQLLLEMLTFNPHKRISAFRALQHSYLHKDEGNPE
Sequence of CDK4 (P24385 whole entry partner): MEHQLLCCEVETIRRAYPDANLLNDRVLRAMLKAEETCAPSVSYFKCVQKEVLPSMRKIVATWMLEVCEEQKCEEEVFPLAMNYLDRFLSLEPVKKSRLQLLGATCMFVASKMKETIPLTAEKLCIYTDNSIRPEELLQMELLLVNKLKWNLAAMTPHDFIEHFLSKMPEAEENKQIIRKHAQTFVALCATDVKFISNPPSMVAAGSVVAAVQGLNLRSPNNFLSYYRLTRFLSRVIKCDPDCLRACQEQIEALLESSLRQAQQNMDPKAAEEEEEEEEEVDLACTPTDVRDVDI
Sequence of CDK4 (Q16531 2-1140 limits assumed): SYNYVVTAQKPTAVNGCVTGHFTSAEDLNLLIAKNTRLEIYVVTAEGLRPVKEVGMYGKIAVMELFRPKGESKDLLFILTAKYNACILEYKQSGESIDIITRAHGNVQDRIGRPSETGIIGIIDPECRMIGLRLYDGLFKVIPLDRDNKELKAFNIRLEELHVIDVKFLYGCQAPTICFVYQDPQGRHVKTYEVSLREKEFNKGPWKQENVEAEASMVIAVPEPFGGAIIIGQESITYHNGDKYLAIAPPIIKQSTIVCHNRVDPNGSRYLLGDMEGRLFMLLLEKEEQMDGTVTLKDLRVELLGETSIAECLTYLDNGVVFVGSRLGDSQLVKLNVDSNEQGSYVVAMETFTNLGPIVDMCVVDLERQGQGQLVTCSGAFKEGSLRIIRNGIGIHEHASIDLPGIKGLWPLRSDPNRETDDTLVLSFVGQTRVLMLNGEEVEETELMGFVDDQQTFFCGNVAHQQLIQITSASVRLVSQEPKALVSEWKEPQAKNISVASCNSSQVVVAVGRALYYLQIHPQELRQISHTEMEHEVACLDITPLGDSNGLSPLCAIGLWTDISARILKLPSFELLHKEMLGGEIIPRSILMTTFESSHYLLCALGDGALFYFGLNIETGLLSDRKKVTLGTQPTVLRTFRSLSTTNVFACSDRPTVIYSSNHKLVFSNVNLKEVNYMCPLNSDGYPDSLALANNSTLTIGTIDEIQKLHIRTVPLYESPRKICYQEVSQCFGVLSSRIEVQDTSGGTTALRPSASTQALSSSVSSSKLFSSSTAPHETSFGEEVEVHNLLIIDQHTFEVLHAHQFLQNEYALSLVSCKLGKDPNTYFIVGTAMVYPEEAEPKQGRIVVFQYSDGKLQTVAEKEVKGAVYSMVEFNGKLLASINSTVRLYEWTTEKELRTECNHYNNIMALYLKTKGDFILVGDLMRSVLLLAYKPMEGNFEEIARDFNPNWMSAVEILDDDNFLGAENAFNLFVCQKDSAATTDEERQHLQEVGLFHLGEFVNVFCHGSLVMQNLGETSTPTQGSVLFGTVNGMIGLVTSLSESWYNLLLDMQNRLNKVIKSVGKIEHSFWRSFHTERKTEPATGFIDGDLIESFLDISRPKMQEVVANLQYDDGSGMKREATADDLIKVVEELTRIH

| Structure (SMILES) | pIC50 [1] | activity at 0.01 µM [2] [%] | activity at 0.1 µM [2] [%] |
| --- | --- | --- | --- |
| CC(C)Nc1ccc(C(=O)Nc2ccc(N(C)C)nn2)c(NC2CC3(CC(NC(=O)CN4CCN(Cc5ccc(Nc6ncc7cc8n(c7n6)C6(CCCCC6)CNC8=O)nc5)CC4)C3)C2)n1 (stereo not drawn) [CPD-558, N-(6-(dimethylamino)pyridazin-3-yl)-6-(isopropylamino)-2-((6-(2-(4-((6-((6′-oxo-7′,8′-dihydro-6′H-spiro[cyclohexane-1,9′-pyrazino[1′,2′:1,5]pyrrolo[2,3-d]pyrimidin]-2′-yl)amino)pyridin-3-yl)methyl)piperazin-1-yl)acetamido)spiro[3.3]heptan-2-yl)amino)nicotinamide] | < 7.00 | > 85 | > 85 |
| CC(=O)c1c(C)c2cnc(Nc3ccc(N4CCN(C5CCN(C(=O)[C@H]6CC[C@H](Nc7nc(C8CC8)ccc7C(=O)Nc7ccc(N(C)C)nn7)CC6)C5)CC4)cn3)nc2n(C2CCCC2)c1=O (stereo partly drawn) [CPD-573, 2-((trans-4-(3-(4-(6-((6-acetyl-8-cyclopentyl-5-methyl-7-oxo-7,8-dihydropyrido[2,3-d]pyrimidin-2-yl)amino)pyridin-3-yl)piperazin-1-yl)pyrrolidine-1-carbonyl)cyclohexyl)amino)-6-cyclopropyl-N-(6-(dimethylamino)pyridazin-3-yl)nicotinamide] | > 7.30 | 55 to 85 | 55 to 85 |
| CC(=O)c1c(C)c2cnc(Nc3ccc(N4CCN(C5CCN(C(=O)C6(O)CCC(Nc7nc(NC(C)C)ccc7C(=O)Nc7ccc(N(C)C)nn7)CC6)C5)CC4)cn3)nc2n(C2CCCC2)c1=O (stereo not drawn) [CPD-574, 2-((cis-4-(3-(4-(6-((6-acetyl-8-cyclopentyl-5-methyl-7-oxo-7,8-dihydropyrido[2,3-d]pyrimidin-2-yl)amino)pyridin-3-yl)piperazin-1-yl)pyrrolidine-1-carbonyl)-4-hydroxycyclohexyl)amino)-N-(6-(dimethylamino)pyridazin-3-yl)-6-(isopropylamino)nicotinamide] | > 7.30 | > 85 | 55 to 85 |
| CC(=O)c1c(C)c2cnc(Nc3ccc(N4CCN(C5CCN(C(=O)[C@H]6CC[C@H](Nc7nc(C)ccc7C(=O)Nc7ccc(N(C)C)nn7)CC6)C5)CC4)cn3)nc2n(C2CCCC2)c1=O (stereo partly drawn) [CPD-576, 2-((trans-4-(3-(4-(6-((6-acetyl-8-cyclopentyl-5-methyl-7-oxo-7,8-dihydropyrido[2,3-d]pyrimidin-2-yl)amino)pyridin-3-yl)piperazin-1-yl)pyrrolidine-1-carbonyl)cyclohexyl)amino)-N-(6-(dimethylamino)pyridazin-3-yl)-6-methylnicotinamide] | < 7.00 | 55 to 85 | 55 to 85 |
| CCc1ccc(C(=O)Nc2ccc(N(C)C)nn2)c(NC23CC(C(=O)N4CCC(N5CCN(c6ccc(Nc7ncc8c(C)c(C(C)=O)c(=O)n(C9CCCC9)c8n7)nc6)CC5)C4)(C2)C3)n1 (stereo not drawn) [CPD-577, 2-((3-(3-(4-(6-((6-acetyl-8-cyclopentyl-5-methyl-7-oxo-7,8-dihydropyrido[2,3-d]pyrimidin-2-yl)amino)pyridin-3-yl)piperazin-1-yl)pyrrolidine-1-carbonyl)bicyclo[1.1.1]pentan-1-yl)amino)-N-(6-(dimethylamino)pyridazin-3-yl)-6-ethylnicotinamide] | > 7.30 | > 85 | 55 to 85 |
| CCc1ccc(C(=O)Nc2ccc(N(C)C)nn2)c(NC2CC3(CC(NC(=O)CN4CCN(Cc5ccc(Nc6ncc7c(C)c(C(C)=O)c(=O)n(C8CCCC8)c7n6)nc5)CC4)C3)C2)n1 (stereo not drawn) [CPD-578, 2-((6-(2-(4-((6-((6-acetyl-8-cyclopentyl-5-methyl-7-oxo-7,8-dihydropyrido[2,3-d]pyrimidin-2-yl)amino)pyridin-3-yl)methyl)piperazin-1-yl)acetamido)spiro[3.3]heptan-2-yl)amino)-N-(6-(dimethylamino)pyridazin-3-yl)-6-ethylnicotinamide] | > 7.30 | 55 to 85 | 55 to 85 |
| CC(=O)c1c(C)c2cnc(Nc3ccc(CN4CCN(CC(=O)NC5CC6(C5)CC(Nc5nc(C(C)C)ccc5C(=O)Nc5ccc(N(C)C)nn5)C6)CC4)cn3)nc2n(C2CCCC2)c1=O (stereo not drawn) [CPD-579, 2-((6-(2-(4-((6-((6-acetyl-8-cyclopentyl-5-methyl-7-oxo-7,8-dihydropyrido[2,3-d]pyrimidin-2-yl)amino)pyridin-3-yl)methyl)piperazin-1-yl)acetamido)spiro[3.3]heptan-2-yl)amino)-N-(6-(dimethylamino)pyridazin-3-yl)-6-isopropylnicotinamide] | > 7.30 | 55 to 85 | 55 to 85 |
| CC(=O)c1c(C)c2cnc(Nc3ccc(N4CCN(C5CCN(C(=O)C67CC(Nc8nc(C(C)C)ccc8C(=O)Nc8ccc(N(C)C)nn8)(C6)C7)C5)CC4)cn3)nc2n(C2CCCC2)c1=O (stereo not drawn) [CPD-580, 2-((3-(3-(4-(6-((6-acetyl-8-cyclopentyl-5-methyl-7-oxo-7,8-dihydropyrido[2,3-d]pyrimidin-2-yl)amino)pyridin-3-yl)piperazin-1-yl)pyrrolidine-1-carbonyl)bicyclo[1.1.1]pentan-1-yl)amino)-N-(6-(dimethylamino)pyridazin-3-yl)-6-isopropylnicotinamide] | > 7.30 | 55 to 85 | 55 to 85 |
| CC(=O)c1c(C)c2cnc(Nc3ccc(CN4CCN(CC(=O)N5CCC6(CCC(Nc7nc(C8CC8)ccc7C(=O)Nc7ccc(N(C)C)nn7)C6)C5)CC4)cn3)nc2n(C2CCCC2)c1=O (stereo not drawn) [CPD-581, 2-((2-(2-(4-((6-((6-acetyl-8-cyclopentyl-5-methyl-7-oxo-7,8-dihydropyrido[2,3-d]pyrimidin-2-yl)amino)pyridin-3-yl)methyl)piperazin-1-yl)acetyl)-2-azaspiro[4.4]nonan-7-yl)amino)-6-cyclopropyl-N-(6-(dimethylamino)pyridazin-3-yl)nicotinamide] | > 7.30 | 55 to 85 | 55 to 85 |
| CCc1ccc(C(=O)Nc2ccc(N(C)C)nn2)c(NC2CCC3(CCN(C(=O)CN4CCN(Cc5ccc(Nc6ncc7c(C)c(C(C)=O)c(=O)n(C8CCCC8)c7n6)nc5)CC4)C3)C2)n1 (stereo not drawn) [CPD-582, 2-((2-(2-(4-((6-((6-acetyl-8-cyclopentyl-5-methyl-7-oxo-7,8-dihydropyrido[2,3-d]pyrimidin-2-yl)amino)pyridin-3-yl)methyl)piperazin-1-yl)acetyl)-2-azaspiro[4.4]nonan-7-yl)amino)-N-(6-(dimethylamino)pyridazin-3-yl)-6-ethylnicotinamide] | > 7.30 | 55 to 85 | 55 to 85 |
| CC(=O)c1c(C)c2cnc(Nc3ccc(CN4CCN(CC(=O)N5CCC6(CCC(Nc7nc(C(C)C)ccc7C(=O)Nc7ccc(N(C)C)nn7)C6)C5)CC4)cn3)nc2n(C2CCCC2)c1=O (stereo not drawn) [CPD-583, 2-((2-(2-(4-((6-((6-acetyl-8-cyclopentyl-5-methyl-7-oxo-7,8-dihydropyrido[2,3-d]pyrimidin-2-yl)amino)pyridin-3-yl)methyl)piperazin-1-yl)acetyl)-2-azaspiro[4.4]nonan-7-yl)amino)-N-(6-(dimethylamino)pyridazin-3-yl)-6-isopropylnicotinamide] | > 7.30 | 55 to 85 | 55 to 85 |
